# Reference: PubChem BioAssay AID489032 (Sanford-Burnham Center for Chemical Genomics, 2010)
# Calls of active or inactive are those of the source. The rule behind the calls is not given here.
# Tested on: UPR adaptive arm reporter cells, luciferase luminescence
# Experiment: activators of adaptive UPR signalling, dose response, cell-based, luciferase luminescence (AID 489032)
row,SMILES,EC50
1,CCOc1cc(/C=N/N=C(/N)c2nonc2N)cc(Br)c1OCc1ccc(Cl)cc1,> 80 µM (inactive)
2,CCOC(=O)c1ccc(-c2ccc(/C=N/NC(=O)CN(c3cccc(C)c3)S(C)(=O)=O)o2)cc1,18.2 µM
3,Cc1cc(NC(=O)c2cc(-c3ccccn3)nc3ccc(Br)cc23)no1,> 80 µM (inactive)
4,CCc1cccc(CC)c1NC(=O)/C(C#N)=C/c1ccccc1C(F)(F)F,> 80 µM (inactive)
5,COc1ccc(-c2cc(=O)oc3c(C)c(OC(=O)c4cccs4)ccc23)cc1,> 80 µM (inactive)
6,CCc1ccc(OCCNc2cc(N3CCNC(C)C3)ccc2[N+](=O)[O-])cc1 (stereo not drawn),18.9 µM
7,CCCC[C@@H](C)C[C@@H](C)C(=O)N(C)[C@@H](CC(C)C)C(=O)N[C@H](C(=O)N(C)[C@H](C(=O)N1C[C@@H](O)C[C@H]1C(=O)N1C(=O)C=C[C@@H]1C)C(C)C)C(C)OC(C)=O (stereo partly drawn),13.4 µM
8,OCCNc1nc(Nc2ccc(Br)cc2)nc2ccccc12,> 80 µM (inactive)
9,COc1c(Cl)cc(Cl)cc1/C=N/NC(=O)c1nnn(-c2nonc2N)c1CN1CCC(C)CC1,50 µM (inactive)
10,Cn1c2ccccc2c2cc(/C=N/NC(=O)c3cc(O)ccc3O)ccc21,38.1 µM (inactive)
11,N#C/C(=C\c1ccc(OCc2ccccc2)cc1)C(=O)Nc1nc2c(s1)CCN(Cc1ccccc1)C2,> 80 µM (inactive)
12,COc1ccc(/C=N/Nc2nnc(-c3ccccc3)c(=O)[nH]2)cc1,19.8 µM
13,COc1ccc(-c2nc3scc(-c4ccc(OC)c(OC)c4)c3c(=O)o2)cc1,> 80 µM (inactive)
14,Cc1ccc2nc(N(CCCN(C)C)C(=O)c3ccc(S(=O)(=O)N4CCc5ccccc5C4)cc3)sc2c1,> 80 µM (inactive)
15,N#CCC(=O)N/N=C/c1cn(Cc2cccc3ccccc23)c2ccccc12,> 80 µM (inactive)
16,O=C(Nc1nc2ccc(Cl)cc2s1)c1ccc(N2CCCCC2)c([N+](=O)[O-])c1,> 80 µM (inactive)
17,CCCCCCCCCn1c2c(c(=N)c3c1CCC3)CCCC2,25.6 µM (inactive)
18,COc1ccc2nc(C)cc(SCC(=O)N/N=C/c3cccc4ccccc34)c2c1,17.8 µM
19,Oc1cc(-c2ccc(N3CCCCC3)nc2)cc2cccnc12,> 80 µM (inactive)
20,Cc1ccc(F)cc1N=Cc1c(O)c2ccccc2oc1=O,10.1 µM
21,C[C@@H]1C[C@H]2[C@@H]3CCC4=CC(=O)C=C[C@]4(C)[C@@]3(Cl)[C@@H](O)C[C@]2(C)[C@@]1(OC(=O)c1ccco1)C(=O)CCl,> 80 µM (inactive)

row,SMILES,EC50
1,Cc1cc(-n2c(SCC(=O)Nc3ccc(F)c(F)c3)nc3n[nH]c(C)c3c2=N)ccc1Cl,> 80 µM (inactive)
2,O=C(C[C@H]1C[C@H](C(=O)N2CCCCC2)[C@@]2(CCc3ccccc3)c3[nH]c4ccc(Cl)cc4c3CCN2C1=O)NCCC1=CCCCC1,> 80 µM (inactive)
3,COc1cc([C@@H]2c3cc4c(cc3[C@@H](O)[C@H]3COC(=O)[C@H]23)OCO4)cc(OC)c1O[Si](C)(C)C(C)(C)C,> 80 µM (inactive)
4,CCOC(=O)C1=C(C)N=C2SC(C(=O)OC)=CC(=O)N2C1c1ccc(F)cc1 (stereo not drawn),32.6 µM (inactive)
5,N#Cc1ccc(-c2ccc(Cl)cc2)nc1SCC(=O)c1cccc(Cl)c1,11 µM
6,Cc1ccc(NC(=O)c2cc(S(=O)(=O)N(C)C)ccc2N2CCCC2)cc1F,37.6 µM (inactive)
7,CCOc1ccc(-n2c(C)cc(C(=O)CCl)c2C)cc1,8.94 µM
8,Cc1cc(C)c2sc(N(CCCN(C)C)C(=O)c3ccc(S(=O)(=O)N4CCCc5ccccc54)cc3)nc2c1,> 80 µM (inactive)
9,CC(C)(C)c1cc(-c2nc(N)nc(N)n2)c(O)c(C(C)(C)C)c1,38.8 µM (inactive)
10,O=C(Nc1cccc(-c2nc3cccnc3s2)c1)C1c2ccccc2Oc2ccccc21,4.67 µM
11,Cc1ccc(-c2nnc(-c3ccc(NC(=O)c4cccs4)cc3)o2)cc1,15.9 µM
12,Cc1ccc2nc(SCC(=O)Nc3cc(C(F)(F)F)ccc3N3CCOCC3)[nH]c2c1,> 80 µM (inactive)
13,CCN(CC)S(=O)(=O)c1ccc2c(c1)C(=NO)c1cc(S(=O)(=O)N(CC)CC)ccc1-2,18.6 µM
14,CC1=C(/C=C/C(C)=C/C=C/C(C)=C/C(=O)Nc2ccc(O)cc2)C(C)(C)CCC1,> 80 µM (inactive)
15,Cc1ccc(N2CCN(c3ccc(NCc4nc5ccccc5n4C)cc3)CC2)cc1,> 80 µM (inactive)
16,COc1ccc(C(CCNC(C)c2ccccc2)c2ccc(F)cc2)cc1 (stereo not drawn),> 80 µM (inactive)
17,C#CCn1c(=NC(=O)c2ccc(Br)s2)sc2cccc(OC)c21,> 80 µM (inactive)
18,COc1cc(OC)c2c(-c3cccc(-c4ccc(CO)cc4)c3)cc(=O)oc2c1,> 80 µM (inactive)
19,COc1ccc(C(=O)Oc2cc3c4c(c2)C(C)=CC(C)(C)N4C(=O)C3=O)cc1OC,25.4 µM (inactive)
20,Cn1cc(/C=C(\C#N)C(=O)Nc2cccc([N+](=O)[O-])c2)c2ccccc21,> 80 µM (inactive)
21,COc1ccc(-c2c/c(=N\c3nc(-c4ccccc4)c(C)s3)c3ccccc3o2)cc1O,> 80 µM (inactive)

row,SMILES,EC50
1,O=C(NCCc1ccc(O)c(O)c1)C1COc2ccccc2O1 (stereo not drawn),66.1 µM (inactive)
2,Cc1ccc(NC(=O)c2ccc(N/N=C/c3cccc(O)c3)c([N+](=O)[O-])c2)cc1,> 80 µM (inactive)
3,Cc1ccc(-c2nnn(CC(=O)Nc3ccc(S(=O)(=O)N4CCC(C)CC4)cc3)n2)cc1,> 80 µM (inactive)
4,O=C(NC(=S)Nc1cc(-c2nc3ccccc3[nH]2)ccc1Cl)c1ccc2c(c1)OCO2,10.1 µM
5,NS(=O)(=O)c1ccc(N/N=C2/CCCCC2C2CCCCC2)c([N+](=O)[O-])c1 (stereo not drawn),> 80 µM (inactive)
6,COc1ccc(S(=O)(=O)N2c3cc(Cl)ccc3Oc3nc4ccccc4nc32)cc1,> 80 µM (inactive)
7,COc1cccc(-c2c(-c3cc(OC)cc(OC)c3)n(C)c3ccc(-c4cnc(N5CCOCC5)nc4)cc23)c1,54.9 µM (inactive)
8,COc1cccc(-n2c(SCC(=O)N3CCc4ccccc43)nnc2-c2c[nH]c3ccccc23)c1,> 80 µM (inactive)
9,COc1ccc(-c2coc3cc4oc(=O)cc(-c5ccccc5)c4cc23)cc1F,43.3 µM (inactive)
10,Cc1c(CCOC(=O)C23CC4(C)CC(C)(CC(C)(C4)C2)C3)sc[n+]1CC(=O)c1ccccc1,> 80 µM (inactive)
11,COc1cc(/C=N/NC(N)=O)c(Br)cc1OCC(=O)Nc1ccccc1C,> 80 µM (inactive)
12,Cn1c(-c2ccccc2)c(/C=N/NC(=O)c2ccc(O)cc2)c2ccccc21,> 80 µM (inactive)
13,CCc1ccc(-c2cc(C(F)(F)F)n3nc(C(=O)Nc4cnn(Cc5ccc(C)cc5)c4)cc3n2)s1,4.24 µM
14,COc1ccc2c(c1)NC(c1cc(Cl)cc(Cl)c1O)c1cccn1-2 (stereo not drawn),33.3 µM (inactive)
15,CC(C)CC(NC(=O)c1ccc(Cl)cc1)C(=O)OCC(=O)c1ccc2c(c1)NC(=O)CO2 (stereo not drawn),> 80 µM (inactive)
16,Cc1c(NC(=O)CSc2ccc(Cl)cc2)cccc1-c1nc2cc(Cl)ccc2o1,> 80 µM (inactive)
17,Cc1ccc2c(c1)C(=O)C(=O)N2Cc1ccc(Br)cc1,59.8 µM (inactive)
18,CCc1sc2nc(SCC(=O)Nc3cc(C)on3)n(-c3cccc(OC)c3)c(=O)c2c1C,> 80 µM (inactive)
19,COc1ccc(NC(=O)c2cc3c(=O)n(C)c4ccccc4c3n2C)cc1Cl,> 80 µM (inactive)
20,COc1cc(/C=C(/C#N)c2nc3ccccc3[nH]2)ccc1OCC(=O)Nc1ccccc1C,> 80 µM (inactive)
21,CCOC(=O)c1nn(-c2ccc(OCC)cc2)c2nc(-c3ccco3)c(C#N)c(=O)n12,58.9 µM (inactive)
